Molecular target: T1, KRAS G12C 1-169, his-tagged protein, GDP-loaded (Homo sapiens, UniProt P01116, G12C)
T1 construct: KRAS G12C 1-169, his-tagged protein, GDP-loaded
Test: Biochemical assay: covalent modification of KRAS G12C protein measured by mass spectrometry (RapidFire/TOF or Q-Exactive)
Settings: covalent binding to KRAS G12C
Procedure: Test compounds are prepared as 10 mM stock solutions in DMSO (Fisher cat # BP-231-100). KRAS G12C 1-169, his-tagged protein, GDP-loaded is diluted to […] in buffer (20 mM Hepes, 150 mM NaCl, 1 mM MgCl2). Compounds are tested for activity as follows:
Compounds are diluted to 50× final test concentration in DMSO in 96-well storage plates. Compound stock solutions are vortexed before use and observed carefully for any sign of precipitation. […] The plate is then resealed with aluminum seal and stored on dry ice until analyzed as described below.
The above described assays are analyzed by mass spectrometry according to one of the following two procedures: […]
After another 30 minute equilibration time, a blank batch (i.e., buffer) is run to ensure equipment is operating properly. […] The method is then run and masses of each individual well recorded. […]
The masses and peak intensities of KRAS G12C protein species are measured using a Dionex RSLCnano system (Thermo Scientific) connected to a Q Exactive Plus mass spectrometer (Thermo Scientific). […]
The mass spectrometer is operated in profile mode at a resolution of 17500, 5 microscans, using 50 msec max injection time and an AGC target of 1e6, and a full mass range from 800-1850 m/z is recorded. […]

T1 sequence (P01116 1-169 isoform P01116-2 G12C): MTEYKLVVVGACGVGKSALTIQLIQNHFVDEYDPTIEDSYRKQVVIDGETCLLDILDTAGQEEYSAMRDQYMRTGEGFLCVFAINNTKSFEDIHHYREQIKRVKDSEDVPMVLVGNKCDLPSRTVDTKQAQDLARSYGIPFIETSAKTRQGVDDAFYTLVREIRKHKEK

Row | SMILES | Binding %
1 | C=CC(=O)N1CCN(c2c3c(nc4c(F)c(-c5c(O)cccc5F)c(Cl)cc24)NC(=O)NC3)CC1 [Compound 1, 5-(4-acryloylpiperazin-1-yl)-7-chloro-9-fluoro-8-(2-fluoro-6-hydroxyphenyl)-3,4-dihydropyrimido [4,5-b]quinolin-2(1H)-one] | ++ (++ indicates binding activity greater than 50%)
2 | C=CC(=O)N1CCN(c2c3c(nc4c(F)c(-c5c(O)cccc5F)c(Cl)cc24)CCN(C)C3=O)CC1 [Compound 19, 10-(4-acryloylpiperazin-1-yl)-8-chloro-6-fluoro-7-(2-fluoro-6-hydroxyphenyl)-2-methyl-3,4-dihydrobenzo[b] [1,6]naphthyridin-1(2H)-one] | + (+ indicates binding activity up to 50%)

— patent publication US10428064B2, “Fused-tricyclic inhibitors of KRAS and methods of use thereof” (Araxes Pharma LLC, priority 2015, dated 2019)
